Measured values from ChEMBL document CHEMBL3045212, “Synthesis of some imidazolyl-substituted 2-benzylidene indanone derivatives as potent aromatase inhibitors for breast cancer therapy” (Med Chem Res, 2011).

Key:
[1] = target: T1, Aromatase (Homo sapiens, UniProt P11511); assay: Inhibition of Homo sapiens (human) aromatase assessed as 3H2O formation using [1beta,2beta-3H]testosterone as substrate at 36 uM by liquid scintillation counting analysis
T1 sequence (P11511 whole entry): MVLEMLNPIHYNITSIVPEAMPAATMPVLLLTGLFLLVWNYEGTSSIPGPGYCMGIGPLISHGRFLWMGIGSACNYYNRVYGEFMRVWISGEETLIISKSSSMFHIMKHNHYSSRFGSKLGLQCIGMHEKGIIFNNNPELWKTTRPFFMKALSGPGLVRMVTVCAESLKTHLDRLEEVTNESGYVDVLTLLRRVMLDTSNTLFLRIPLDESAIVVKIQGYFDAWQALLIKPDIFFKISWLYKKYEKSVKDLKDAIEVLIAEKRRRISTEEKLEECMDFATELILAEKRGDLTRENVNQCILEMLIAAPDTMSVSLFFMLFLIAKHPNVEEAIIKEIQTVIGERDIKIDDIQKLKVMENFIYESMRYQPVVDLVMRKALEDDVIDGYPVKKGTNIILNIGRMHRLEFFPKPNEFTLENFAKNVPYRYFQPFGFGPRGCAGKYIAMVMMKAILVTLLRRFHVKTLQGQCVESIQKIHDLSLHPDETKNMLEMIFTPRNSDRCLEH

[2] = target: T1, Aromatase; assay: Ratio of aminoglutethimide IC50 to compound IC50 for Homo sapiens (human) aromatase
[3] = target: T1, Aromatase; assay: Inhibition of Homo sapiens (human) aromatase assessed as 3H2O formation using [1beta,2beta-3H]testosterone as substrate by liquid scintillation counting analysis

inhibition at 36 µM [1]	IC50 [3]	Compound	Ratio IC50 [2]	further results
8%		O=C1/C(=C/c2ccccc2OCCCCl)Cc2ccccc21		
	1100 nM	O=C1/C(=C/c2ccccc2OCCCn2ccnc2)Cc2ccccc21	26.6	
8%		COc1ccc(/C=C2\Cc3ccccc3C2=O)cc1OCCCCl		
		COc1cc(/C=C2\Cc3ccccc3C2=O)ccc1OCCN(C)C		inhibition (INH) ([1]; 36 µM): Not Active
13%		O=C1/C(=C/c2cccc(OCCCCl)c2)Cc2ccccc21		
	1340 nM	COc1ccc(/C=C2\Cc3ccccc3C2=O)cc1OCCCn1ccnc1	22.5	
6%		O=C1/C(=C/c2c[nH]c3ccccc23)Cc2ccccc21		
	700 nM	O=C1/C(=C/c2cccc(OCCCn3ccnc3)c2)Cc2ccccc21	42.5	
8.5%		COc1cc(/C=C2\Cc3ccccc3C2=O)ccc1OCCCCl		
		COc1cc(/C=C2\Cc3ccccc3C2=O)ccc1OCCCn1ccnc1	54.1	
